Test results from paper PMC3633088 (Chemistry & biology, 2013).

Columns and labels:
[1] = target: T1, hASNase3, cleaved (active) form, alpha and beta chains (Homo sapiens, UniProt Q7L266); assay: asparaginase activity assay; format: biochemical; conditions: turnover by cleaved enzyme only; data not shown
T1 sequence (Q7L266 1-167): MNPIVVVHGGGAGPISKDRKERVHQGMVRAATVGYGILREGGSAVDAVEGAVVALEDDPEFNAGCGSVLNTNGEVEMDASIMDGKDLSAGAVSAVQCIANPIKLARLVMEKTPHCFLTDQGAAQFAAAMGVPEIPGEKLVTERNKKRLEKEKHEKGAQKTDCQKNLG
T1 sequence (Q7L266 168-308): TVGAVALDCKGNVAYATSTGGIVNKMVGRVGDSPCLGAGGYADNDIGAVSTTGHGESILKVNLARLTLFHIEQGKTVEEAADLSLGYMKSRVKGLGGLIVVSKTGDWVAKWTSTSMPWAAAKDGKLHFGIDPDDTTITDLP

[2] = target: T1, hASNase3, cleaved (active) form, alpha and beta chains; assay: asparaginase activity assay; format: biochemical; conditions: up to 50 mM; cleaved enzyme
[3] = target: T1, hASNase3, cleaved (active) form, alpha and beta chains; assay: X-ray crystal structure, […] Å; format: binding; conditions: crystal soaked in 3 M glycine, pH 4.9, <1 minute; substrate site (Arg196, Asp199)
[4] = target: T2, hASNase3, uncleaved form (human asparaginase 3; hASRGL1/ALP; CRASH) (Homo sapiens, UniProt Q7L266); assay: autocleavage, SDS-PAGE band quantification; format: biochemical; conditions: accelerates autoproteolysis; 5 mM glycine, pH 7.5, 25 °C, 42 hours
T2 sequence (Q7L266 1-308): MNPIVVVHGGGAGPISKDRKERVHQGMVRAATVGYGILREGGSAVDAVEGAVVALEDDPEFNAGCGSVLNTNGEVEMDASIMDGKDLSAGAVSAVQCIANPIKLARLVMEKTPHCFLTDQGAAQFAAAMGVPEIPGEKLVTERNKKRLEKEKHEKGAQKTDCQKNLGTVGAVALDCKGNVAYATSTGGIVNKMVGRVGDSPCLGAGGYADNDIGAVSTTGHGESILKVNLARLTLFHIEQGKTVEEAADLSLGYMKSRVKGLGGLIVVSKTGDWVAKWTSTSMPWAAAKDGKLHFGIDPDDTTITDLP

[5] = target: T1, hASNase3, cleaved (active) form, alpha and beta chains; assay: asparaginase activity assay; format: biochemical; conditions: 10 or 50 mM glycine; cleaved enzyme
crystal structure = target: the molecule itself; assay: crystal structure
hASNase3 α-chain = target: T3, hASNase3 α-chain (human, UniProt Q7L266 1-167); assay: crystal structure
T3 sequence (looked up): T1 sequence (Q7L266 1-167)

## NC(=O)C[C@H](N)C(=O)O [asparagine]
[1]
  asparaginase activity assay: The measured asparaginase activity of hASNase3 was proportional to the amount of cleaved enzyme

## N[C@@H](CO)C(=O)O [serine]
[2]
  inhibition, concentration-dependent: glycolate, glyoxylate, oxalate, L-aspartate, and serine showed a concentration-dependent effect

## O=C(O)C(=O)O [oxalate]
[2]
  inhibition, concentration-dependent: glycolate, glyoxylate, oxalate, L-aspartate, and serine showed a concentration-dependent effect

## NCC(=O)O [glycine]
[3]
  X-ray crystal structure, 1.91 Å: In this post-cleavage state of hASNase3, glycine bound at the active site
[4]
  % cleavage at 5 mM: 40%
[5]
  % reduction of asparaginase activity at 10 or 50 mM: ~ 50%

## O=C(O)CO [glycolate]
[2]
  inhibition, concentration-dependent: glycolate, glyoxylate, oxalate, L-aspartate, and serine showed a concentration-dependent effect

## O=CC(=O)O [glyoxylate]
[2]
  inhibition, concentration-dependent: glycolate, glyoxylate, oxalate, L-aspartate, and serine showed a concentration-dependent effect

## N[C@@H](CC(=O)O)C(=O)O [L-aspartate]
[2]
  inhibition, concentration-dependent: glycolate, glyoxylate, oxalate, L-aspartate, and serine showed a concentration-dependent effect

B1: Human asparaginase 3 (hASNase3), cleaved form (α- and β-chains) (complex)
chain 1: T1 sequence (Q7L266 1-167)
chain 2: T1 sequence (Q7L266 168-308)
Crystal structure
  binding result: binds

B2: hASNase3 β-chain (domain or fragment, human, UniProt Q7L266 168-308, looked up)
chain: T1 sequence (Q7L266 168-308)
hASNase3 α-chain
  binding result: binds
